Results from patent US12358886B2, “Heterocyclic compounds for use in the treatment of cancer” (Artios Pharma Limited, priority 2019, dated 2025).

Biological target: Polθ protein (amino acids 2-2590) (Homo sapiens, UniProt O75417)
Test: Polθ full length enzyme potency assay (PicoGreen)
Conditions: Polθ IC50 (nM), full length N-His, C-term FLAG tagged Polθ, PicoGreen fluorescence, 12 point concentration response

Chain of Polθ protein (amino acids 2-2590) (O75417 2-2590): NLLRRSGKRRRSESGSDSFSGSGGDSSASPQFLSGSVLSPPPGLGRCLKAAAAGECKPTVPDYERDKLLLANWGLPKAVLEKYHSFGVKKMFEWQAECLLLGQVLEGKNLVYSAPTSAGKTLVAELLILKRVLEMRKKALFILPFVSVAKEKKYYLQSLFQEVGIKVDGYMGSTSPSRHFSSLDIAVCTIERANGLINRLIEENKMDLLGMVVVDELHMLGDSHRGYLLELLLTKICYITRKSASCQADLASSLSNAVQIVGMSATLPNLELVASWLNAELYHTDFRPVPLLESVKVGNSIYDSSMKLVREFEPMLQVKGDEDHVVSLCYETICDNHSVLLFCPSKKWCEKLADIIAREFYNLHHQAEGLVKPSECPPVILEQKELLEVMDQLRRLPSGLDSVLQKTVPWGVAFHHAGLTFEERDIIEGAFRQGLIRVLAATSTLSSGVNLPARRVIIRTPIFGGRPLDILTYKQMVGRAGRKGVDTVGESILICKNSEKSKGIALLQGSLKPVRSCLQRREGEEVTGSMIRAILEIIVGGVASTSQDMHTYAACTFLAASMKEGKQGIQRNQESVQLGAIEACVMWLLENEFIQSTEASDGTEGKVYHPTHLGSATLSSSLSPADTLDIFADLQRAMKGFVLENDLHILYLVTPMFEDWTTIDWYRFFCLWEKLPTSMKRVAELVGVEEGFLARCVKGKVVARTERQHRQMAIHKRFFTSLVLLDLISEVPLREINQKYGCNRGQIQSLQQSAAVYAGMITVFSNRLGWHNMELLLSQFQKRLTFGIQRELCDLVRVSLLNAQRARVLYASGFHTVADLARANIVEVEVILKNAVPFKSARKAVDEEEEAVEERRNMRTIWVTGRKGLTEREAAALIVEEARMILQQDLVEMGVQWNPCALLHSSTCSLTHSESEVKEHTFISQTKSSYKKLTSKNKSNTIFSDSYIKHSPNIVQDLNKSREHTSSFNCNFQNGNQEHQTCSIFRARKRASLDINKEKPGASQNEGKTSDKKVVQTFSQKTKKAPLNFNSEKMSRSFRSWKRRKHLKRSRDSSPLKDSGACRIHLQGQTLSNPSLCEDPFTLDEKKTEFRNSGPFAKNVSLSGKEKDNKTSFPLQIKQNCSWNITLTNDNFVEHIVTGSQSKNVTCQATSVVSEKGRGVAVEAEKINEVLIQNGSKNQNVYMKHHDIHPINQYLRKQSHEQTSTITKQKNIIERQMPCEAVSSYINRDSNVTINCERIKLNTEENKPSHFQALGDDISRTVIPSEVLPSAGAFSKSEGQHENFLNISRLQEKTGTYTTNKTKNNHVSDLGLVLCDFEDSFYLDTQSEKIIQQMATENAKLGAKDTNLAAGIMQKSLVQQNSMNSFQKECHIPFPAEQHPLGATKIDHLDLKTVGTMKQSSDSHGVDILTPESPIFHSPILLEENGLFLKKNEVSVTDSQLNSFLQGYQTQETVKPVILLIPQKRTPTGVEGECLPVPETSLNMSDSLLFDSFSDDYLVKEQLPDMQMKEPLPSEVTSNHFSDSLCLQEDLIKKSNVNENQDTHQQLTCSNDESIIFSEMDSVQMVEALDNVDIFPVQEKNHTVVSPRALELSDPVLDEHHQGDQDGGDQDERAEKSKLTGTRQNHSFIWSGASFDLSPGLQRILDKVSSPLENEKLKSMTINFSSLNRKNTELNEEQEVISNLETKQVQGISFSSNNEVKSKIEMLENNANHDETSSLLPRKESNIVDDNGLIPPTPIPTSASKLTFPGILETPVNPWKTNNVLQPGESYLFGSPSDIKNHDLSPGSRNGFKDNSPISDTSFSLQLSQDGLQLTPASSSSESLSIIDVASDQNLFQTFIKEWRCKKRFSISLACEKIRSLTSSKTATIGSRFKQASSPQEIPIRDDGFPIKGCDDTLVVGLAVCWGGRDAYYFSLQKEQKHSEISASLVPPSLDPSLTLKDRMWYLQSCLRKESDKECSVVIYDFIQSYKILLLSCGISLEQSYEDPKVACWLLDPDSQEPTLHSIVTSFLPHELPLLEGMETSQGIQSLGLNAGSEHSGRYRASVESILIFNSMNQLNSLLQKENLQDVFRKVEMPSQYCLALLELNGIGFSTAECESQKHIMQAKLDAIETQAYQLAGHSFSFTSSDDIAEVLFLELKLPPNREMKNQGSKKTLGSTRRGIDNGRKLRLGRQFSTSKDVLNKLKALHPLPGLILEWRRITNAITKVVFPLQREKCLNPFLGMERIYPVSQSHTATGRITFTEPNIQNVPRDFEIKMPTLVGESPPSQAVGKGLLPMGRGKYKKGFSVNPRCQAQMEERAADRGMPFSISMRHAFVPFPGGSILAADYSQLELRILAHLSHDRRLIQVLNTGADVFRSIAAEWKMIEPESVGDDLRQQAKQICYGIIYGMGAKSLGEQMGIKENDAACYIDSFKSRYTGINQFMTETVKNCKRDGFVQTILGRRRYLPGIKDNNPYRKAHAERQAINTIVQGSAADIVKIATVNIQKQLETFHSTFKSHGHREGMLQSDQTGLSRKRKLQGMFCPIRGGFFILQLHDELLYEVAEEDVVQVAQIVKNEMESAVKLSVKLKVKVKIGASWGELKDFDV

Row | IC50 [nM] | Structure (SMILES)
1 | 4 | Cc1cc(C(F)(F)F)cc(N2C(=O)[C@@H](O)[C@@H](O)[C@H]2C(=O)N(C)c2ccc(F)c(Cl)c2F)n1 [Example 70, (2S,3S,4S)—N-(3-Chloro-2,4-difluorophenyl)-3,4-dihydroxy-N-methyl-1-(6-methyl-4-(trifluoromethyl)pyridin-2-yl)-5-oxopyrrolidine-2-carboxamide]
2 | 10 | Cc1cc(C(F)(F)F)cc(N2C(=O)[C@H](O)[C@H](O)[C@H]2C(=O)N(C)c2ccc(F)c(Cl)c2F)n1 [Example 71, (2S,3R,4R)—N-(3-Chloro-2,4-difluorophenyl)-3,4-dihydroxy-N-methyl-1-(6-methyl-4-(trifluoromethyl)pyridin-2-yl)-5-oxopyrrolidine-2-carboxamide]
3 | 32 | Cc1cc(C(F)(F)F)cc(N2C(=O)[C@H](O)[C@H](O)[C@H]2C(=O)N(C)c2ccc(F)c(Cl)c2)n1 [Example 72, (2S,3R,4R)—N-(3-Chloro-4-fluorophenyl)-3,4-dihydroxy-N-methyl-1-(6-methyl-4-(trifluoromethyl)pyridin-2-yl)-5-oxopyrrolidine-2-carboxamide]
4 | 24 | Cc1cc(C(F)(F)F)cc(N2C(=O)[C@@H](COCc3ccccc3)C[C@H]2C(=O)N(C)c2ccc(F)c(Cl)c2)n1 [Example 76, (2S,4R)-4-((Benzyloxy)methyl)-N-(3-chloro-4-fluorophenyl)-N-methyl-1-(6-methyl-4-(trifluoromethyl)pyridin-2-yl)-5-oxopyrrolidine-2-carboxamide]
5 | 11 | Cc1cc(C(F)(F)F)cc(N2C(=O)[C@@H](CO)C[C@H]2C(=O)N(C)c2ccc(F)c(Cl)c2)n1 [Example 77, (2S,4R)—N-(3-Chloro-4-fluorophenyl)-4-(hydroxymethyl)-N-methyl-1-(6-methyl-4-(trifluoromethyl)pyridin-2-yl)-5-oxopyrrolidine-2-carboxamide]
6 | 6 | Cc1cc(C(F)(F)F)cc(N2C(=O)C[C@@H](O)[C@H]2C(=O)N(C)c2ccc(F)c(Cl)c2)n1 [Example 80, (2S,3R)—N-(3-Chloro-4-fluorophenyl)-3-hydroxy-N-methyl-1-(6-methyl-4-(trifluoromethyl)-pyridin-2-yl)-5-oxopyrrolidine-2-carboxamide]
7 | 8 | Cc1cc(C(F)(F)F)c(C#N)c(N2CC[C@@H](O)[C@H]2C(=O)N(C)c2ccc(F)c(Cl)c2)n1 [Example 81, (2S,3R)—N-(3-Chloro-4-fluorophenyl)-1-(3-cyano-6-methyl-4-(trifluoromethyl)pyridin-2-yl)-3-hydroxy-N-methylpyrrolidine-2-carboxamide]
8 | 8 | CCN(C(=O)[C@@H]1[C@H](O)CCN1c1nc(C)cc(C(F)(F)F)c1C#N)c1ccc(F)c(Cl)c1 [Example 82, (2S,3R)—N-(3-Chloro-4-fluorophenyl)-1-(3-cyano-6-methyl-4-(trifluoromethyl)pyridin-2-yl)-N-ethyl-3-hydroxypyrrolidine-2-carboxamide]
9 | 16 | Cc1cc(C(F)(F)F)cc(N2C(=O)OC[C@H]2C(=O)N(C)c2ccc(F)c(Cl)c2)n1 [Example 83, (S)—N-(3-Chloro-4-fluorophenyl)-N-methyl-3-(6-methyl-4-(trifluoromethyl)pyridin-2-yl)-2-oxooxazolidine-4-carboxamide]
10 | 6 | Cc1cc(C(F)(F)F)cc(N2C(=O)OC[C@H]2C(=O)N(C)c2ccc(Cl)c(C)c2)n1 [Example 84, (S)—N-(4-Chloro-3-methylphenyl)-N-methyl-3-(6-methyl-4-(trifluoromethyl)pyridin-2-yl)-2-oxooxazolidine-4-carboxamide]
11 | 5 | Cc1cc(C(F)(F)F)cc(N2C(=O)OC[C@H]2C(=O)N(C)c2ccc(F)c(Cl)c2F)n1 [Example 85, (S)—N-(3-Chloro-2,4-difluorophenyl)-N-methyl-3-(6-methyl-4-(trifluoromethyl)pyridin-2-yl)-2-oxooxazolidine-4-carboxamide]
12 | 9 | Cc1cc(C(F)(F)F)cc(N2C(=O)OC[C@H]2C(=O)N(C)c2ccc(F)c(C)c2)n1 [Example 86, (S)-N-(4-Fluoro-3-methylphenyl)-N-methyl-3-(6-methyl-4-(trifluoromethyl)pyridin-2-yl)-2-oxooxazolidine-4-carboxamide]
13 | 6 | Cc1cc(C(F)(F)F)cc(N2C(=O)OC[C@H]2C(=O)N(C)c2ccc(C)c(Cl)c2)n1 [Example 88, (S)-N-(3-Chloro-4-methylphenyl)-N-methyl-3-(6-methyl-4-(trifluoromethyl)pyridin-2-yl)-2-oxooxazolidine-4-carboxamide]
14 | 16 | Cc1cc(C(F)(F)F)cc(N2C(=O)OC[C@H]2C(=O)N(C)c2ccc(Cl)c(Cl)c2)n1 [Example 89, (S)-N-(3,4-Dichlorophenyl)-N-methyl-3-(6-methyl-4-(trifluoromethyl)-pyridin-2-yl)-2-oxooxazolidine-4-carboxamide]
15 | 226 | COc1cc(N(C)C(=O)[C@@H]2COC(=O)N2c2cc(C(F)(F)F)cc(C)n2)ccc1F [Example 90, (S)-N-(4-Fluoro-3-methoxyphenyl)-N-methyl-3-(6-methyl-4-(trifluoromethyl)pyridin-2-yl)-2-oxooxazolidine-4-carboxamide]
16 | 81 | COc1cc(N(C)C(=O)[C@@H]2COC(=O)N2c2cc(C(F)(F)F)cc(C)n2)ccc1Cl [Example 91, (S)-N-(4-Chloro-3-methoxyphenyl)-N-methyl-3-(6-methyl-4-(trifluoromethyl)pyridin-2-yl)-2-oxooxazolidine-4-carboxamide]
17 | 18 | COc1cc(N(C)C(=O)[C@@H]2COC(=O)N2c2cc(C(F)(F)F)cc(C)n2)ccc1C [Example 92, (S)-N-(3-Methoxy-4-methylphenyl)-N-methyl-3-(6-methyl-4-(trifluoromethyl)pyridin-2-yl)-2-oxooxazolidine-4-carboxamide]
18 | 16 | Cc1cc(C(F)(F)F)cc(N2C(=O)OC[C@H]2C(=O)N(C)c2ccc(F)c(Br)c2)n1 [Example 93, (S)-N-(3-Bromo-4-fluorophenyl)-N-methyl-3-(6-methyl-4-(trifluoromethyl)pyridin-2-yl)-2-oxooxazolidine-4-carboxamide]
19 | 12 | Cc1cc(C(F)(F)F)cc(N2C(=O)OC[C@H]2C(=O)N(C)c2ccc(Br)cc2F)n1 [Example 94, (S)-N-(4-Bromo-2-fluorophenyl)-N-methyl-3-(6-methyl-4-(trifluoromethyl)pyridin-2-yl)-2-oxooxazolidine-4-carboxamide]

Same assay, conditions: read-out: Polθ IC50; full length N-His, C-term FLAG tagged Polθ, PicoGreen fluorescence, 12 point concentration response

Row | IC50 [nM] | Structure (SMILES)
20 | 25 | Cc1cc(C(F)(F)F)cc(N2C(=O)[C@@H](O)C[C@H]2C(=O)N(C)c2ccc(F)c(Cl)c2)n1 [Example 74, (2S,4S)—N-(3-Chloro-4-fluorophenyl)-4-hydroxy-N-methyl-1-(6-methyl-4-(trifluoromethyl)-pyridin-2-yl)-5-oxopyrrolidine-2-carboxamide]
21 | 95 | CCN(C(=O)[C@@H]1C[C@H](O)C(=O)N1c1cc(C(F)(F)F)cc(C)n1)c1ccc(F)c(Cl)c1 [Example 75, (2S,4S)—N-(3-Chloro-4-fluorophenyl)-N-ethyl-4-hydroxy-1-(6-methyl-4-(trifluoromethyl)pyridin-2-yl)-5-oxopyrrolidine-2-carboxamide]
22 | 15 | Cc1cc(C(F)(F)F)cc(N2C(=O)OC[C@H]2C(=O)N(C)c2cccc(Cl)c2)n1 [Example 87, (S)-N-(3-Chlorophenyl)-N-methyl-3-(6-methyl-4-(trifluoromethyl)pyridin-2-yl)-2-oxooxazolidine-4-carboxamide]
